Test [1] addresses T1, Cholecystokinin receptor type A (Rattus norvegicus) (UniProt P30551).
T1 sequence (whole entry): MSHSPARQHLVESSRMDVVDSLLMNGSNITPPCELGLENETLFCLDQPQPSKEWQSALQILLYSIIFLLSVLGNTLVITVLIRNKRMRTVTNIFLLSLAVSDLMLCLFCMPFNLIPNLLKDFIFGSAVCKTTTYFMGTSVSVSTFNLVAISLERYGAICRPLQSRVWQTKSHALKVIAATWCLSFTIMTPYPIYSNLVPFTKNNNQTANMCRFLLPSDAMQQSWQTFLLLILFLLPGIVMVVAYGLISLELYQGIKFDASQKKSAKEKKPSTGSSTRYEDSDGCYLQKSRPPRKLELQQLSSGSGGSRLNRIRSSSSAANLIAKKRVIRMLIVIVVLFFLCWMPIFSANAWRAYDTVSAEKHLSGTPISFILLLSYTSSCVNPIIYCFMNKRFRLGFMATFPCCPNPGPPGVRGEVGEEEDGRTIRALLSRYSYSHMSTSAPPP
Briefly: Activity at CCK receptor in SD rat at 1 uM expressed in pancreatic acinar cell line. In kind it is functional. Particulars: filed as antagonist.

For test [2], the target named is T2, Cholecystokinin receptor type A (Rattus norvegicus, UniProt P30551).
T2 sequence (P30551 whole entry): T1 sequence (whole entry)
Briefly: Displacement of [125I]D-Tyr-Gly-[(Nle28,31)CCK-26-33] from rat CCK receptor expressed in CHO cells. In kind it is cell-based.

Test [3] concerns the target T2, Cholecystokinin receptor type A. Briefly: Intrinsic agonistic activity at CCK receptor in SD rat at 1 uM expressed in pancreatic acinar cell line. In kind it is functional.

Structures are written as SMILES.

Data on four molecules can be found in ChEMBL document CHEMBL1148618, “Novel benzodiazepine photoaffinity probe stereoselectively labels a site deep within the membrane-spanning domain of the cholecystokinin receptor” (J Med Chem, 2006).

In general, IC50 refers to the concentration at which inhibition is half-maximal. Low readings indicate inhibition by little substance, high ones a need for much substance. Usually EC50 stands for the midpoint of the concentration-response curve.

For the molecule `COc1ccc(N(C(=O)CN2C(=O)[C@@H](NC(=O)Nc3cccc(C(=O)c4ccccc4)c3)C(=O)N(c3ccccc3)c3ccccc32)C(C)C)cc1`, in test [1], the Activity entry was “Antagonist”. Moreover, in test [2], the IC50 was determined as 0.71 µM. As to `COc1ccc(N(C)C(=O)CN2C(=O)[C@H](NC(=O)Nc3cccc(C(=O)c4ccccc4)c3)C(=O)N(c3ccccc3)c3ccccc32)cc1`, the IC50 in test [2] amounted to 0.49 µM. `COc1ccc(N(C)C(=O)CN2C(=O)[C@@H](NC(=O)Nc3cccc(C(=O)c4ccccc4)c3)C(=O)N(c3ccccc3)c3ccccc32)cc1` registered an IC50 in test [2] of 0.47 µM. `COc1ccc(N(C(=O)CN2C(=O)[C@H](NC(=O)Nc3cccc(C(=O)c4ccccc4)c3)C(=O)N(c3ccccc3)c3ccccc32)C(C)C)cc1`: the IC50 in test [2] was 0.061 µM. Moreover, in test [3], the EC50 came to 0.15 µM.
